From patent US20050203191A1, “1-Aminocyclohexane derivatives for the treatment of agitation and other behavioral disorders, especially those associated with alzheimer's disease” (priority 2004, published 2005)

System: patients with mild to moderate dementia of the Alzheimer's type on stable chronic doses of a cholinesterase inhibitor
Experiment: MD-12: randomized, double-blind, placebo-controlled evaluation of memantine added to stable cholinesterase inhibitor
Assay type: in vivo, human
Details: MD-12, on cholinesterase inhibitor, week 24, ITT LOCF
Procedure: The primary endpoints for MD-12 were ADAS-cog and CIBIC-plus. Other endpoints for MD-12 included ADCS-ADL23, NPI, MMSE and RUD (Resource Utilization in Dementia).
The five memantine trials were evaluated using an analysis of patient for a population having an NPI agitation subscale score of >4 ([…]) and for a population having an NPI score of <4 ([…]). For each NPI population, changes in SIB, ADAS-cog and/or ADL were calculated using the least square (LS) mean difference for memantine and placebo-treated patients. Similarly, for each NPI population, the raw mean difference between memantine and placebo was calculated for the CIBIC-plus results.
For primary efficacy measurements the comparison between memantine and placebo was performed using two-way analysis of covariance (ANCOVA) with treatment group and center as the two factors, and the baseline scores as covariate. Both the LOCF imputation approach and the OC approach are performed at the end of the trials.
For secondary efficacy measurements, the comparison between memantine and placebo was performed using two-way analysis of covariance (ANCOVA) with treatment group and center as the two main effects, and the baseline scores as covariate. Descriptive statistics were calculated by Visit. Again, all analyses were performed using both the LOCF imputation approach and the OC approach.
Results of ANCOVA were summarized using least square (LS) means for each treatment group with corresponding standard error (SE), the between-treatment (2-24 week) difference in the least square means with corresponding 95% confidence interval, and the between-treatment p-value corresponds to the SAS Type III sum of squares.
In data Tables 5-19, the Overall Memantine versus Placebo columns of studies MD-01, MD-02, MD-10 and MD-12 used an ANCOVA model with baseline total score as covariate, treatment and study center as factors for SIB, ADL or ADAS-cog; CMH test controlling for study center for CIBIC-Plus. For MZ-9605, results are based on arithmetic means and the Wilcoxon-Mann-Whitney test. The Agitation score columns/NPI/antipsychotics columns, except CIBIS-Plus, calculated the p-values and LS mean differences within the subgroups from an ANCOVA model with baseline total score as covariate, subgroup (yes/no), treatment, and treatment by subgroup interactions as factors. For CIBIS-Plus, the p-values and raw mean differences within a subgroup were calculated using the CMH test controlling for study center.
Patients in the same five trials described above were stratified into two sub-groups in a second analysis, those with an NPI total score in the top quartile (≧75%), or those more severely impaired at baseline, and those with an NPI total score <75%, or less severe impairment at baseline. Similar to as in Example 1, results were evaluated using the change in SIB (cognitive endpoint), and change in ADCS-ADL (functional endpoint), using the LS mean. The change in the CIBIC-plus (global endpoint) was assessed using the raw mean.
A sub-population of patients from the five trials, MD-01, MD-02, MD-10, MD-12, and MZ-9605, were concurrently taking antipsychotics.

[1] = NPI total score ≧=75% (top quartile)
[2] = antipsychotics usage “YES” (N = n)
[3] = antipsychotics usage “YES” (N = y)
[4] = baseline NPI agitation score <4
[5] = baseline NPI agitation score ≧=4

## CC12CC3CC(C)(C1)CC(N)(C3)C2 [memantine, 1-amino-3,5-dimethyl adamantane]
  ADAS-COG (change) LS Mean Diff., MEM v. PLA (second parameter of Table 18): −0.24
NPI total score <75%
  ADAS-cog (change) LS Mean Diff., MEM v. PLA: −0.39
  ADAS-cog (change) mean: 0.53
  ADCS-ADL (change) LS Mean Diff., MEM v. PLA: −0.76
  ADCS-ADL (change) mean: −3.0
  CIBIC-PLUS Raw Mean Diff., MEM v. PLA: −0.041
  CIBIC-PLUS mean: 4.3
NPI total score <75%, listed as MEM
  CIBIC-PLUS Raw Mean Diff., MEM v. PLA: −0.1
[1]
  ADAS-cog (change) LS Mean Diff., MEM v. PLA: −1.53
  ADAS-cog (change) mean: 0.05
  ADCS-ADL (change) LS Mean Diff., MEM v. PLA: 2.0
  ADCS-ADL (change) mean: −2.8
  CIBIC-PLUS Raw Mean Diff., MEM v. PLA: 0.0
  CIBIC-PLUS mean: 4.6
NPI total score ≧=75% (top quartile), listed as MEM
  ADCS-ADL (change) LS Mean Diff., MEM v. PLA: 2.00
[2]
  ADAS-COG (change) mean (second parameter of Table 18): −2.5
  ADAS-cog (change) LS Mean Diff., MEM v. PLA: −0.74
  ADAS-cog (change) mean: 0.1
  CIBIC-PLUS Raw Mean Diff., MEM v. PLA: −0.06
  CIBIC-PLUS mean: 4.33
[3]
  ADAS-COG (change) LS Mean Diff., MEM v. PLA (second parameter of Table 18): .43
  ADAS-COG (change) mean (second parameter of Table 18): −6.0
  ADAS-cog (change) LS Mean Diff., MEM v. PLA: .4
  ADAS-cog (change) mean: 3.2
  CIBIC-PLUS Raw Mean Diff., MEM v. PLA: 0.1
  CIBIC-PLUS mean: 4.74
[4]
  ADAS-cog (change) LS Mean Diff., MEM v. PLA: −0.72
  ADAS-cog (change) mean: 0.35
  ADCS-ADL (change) LS Mean Diff., MEM v. PLA: −0.56
  ADCS-ADL (change) mean: −2.8
  CIBIC-PLUS Raw Mean Diff., MEM v. PLA: −0.1
  CIBIC-PLUS mean: 4.3
[5]
  ADAS-cog (change) LS Mean Diff., MEM v. PLA: −0.27
  ADAS-cog (change) mean: 0.98
  ADCS-ADL (change) LS Mean Diff., MEM v. PLA: 3.54
  ADCS-ADL (change) mean: −3.7
  CIBIC-PLUS Raw Mean Diff., MEM v. PLA: no difference
  CIBIC-PLUS mean: 4.7
Baseline NPI agitation score ≧=4, listed as MEM
  CIBIC-PLUS Raw Mean Diff., MEM v. PLA: 0.0
overall
  ADAS-cog (change) LS Mean Diff., MEM v. PLA: −0.70
  ADAS-cog (change) LS mean: 0.10
  ADCS-ADL (change) LS Mean Diff., MEM v. PLA: −0.20
  ADCS-ADL (change) LS mean: −3.00
  CIBIC-PLUS LS mean: 4.38
  CIBIC-PLUS Raw Mean Diff., MEM v. PLA: −0.04
